A short description of the series: Solubility of rebaudioside B crystal polymorphs by incremental addition to solvent in a temperature controlled stirred vessel, visual determination. The class given is physicochemical. To be noted: for solubility: 25 °C, thermodynamic from solid; for solubility / solubility in ethanol / solubility in water: 25° C. As for the experimental part: The solubility of each of the four crystal polymorphs of rebaudioside B was determined in the following manner. Experiments were conducted using a known volume of solvent in a temperature controlled stirred vessel. The amount of solvent used was either 1 mL or 2 mL. Rebaudioside B was added to the solvent in the temperature controlled stirred vessel in 0.5 mg increments and held to visually determine if it dissolved. If the first 0.5 mg increment dissolved, another 0.5 mg increment was added and again held to visually determine if it dissolved. […] Each incremental addition of rebaudioside B was allowed a maximum of 1 hour to dissolve (if dissolution took place more quickly it was not necessary to wait the full 1 hour).

Values after ≈ are worked out from the molar mass of the structure shown. Read-outs that look alike come from different tables or passages of the source.

Regarding `C=C1C[C@@]23CC[C@H]4[C@@](C)(CCC[C@@]4(C)C(=O)O)[C@@H]2CC[C@]1(O[C@@H]1O[C@H](CO)[C@@H](O)[C@H](O[C@@H]2O[C@H](CO)[C@@H](O)[C@H](O)[C@H]2O)[C@H]1O[C@@H]1O[C@H](CO)[C@@H](O)[C@H](O)[C@H]1O)C3` [Form 1, rebaudioside B], the “solubility in ethanol (in words)” value is “moderate” and the solubility in ethanol result is “about 8.3 mg/mL”. Also, the solubility (95% ethanol/5% water solution, organic solvent or mixture, 95% ethanol/5% water solution, read-out: solubility in a 95% ethanol/5% water solution) was roughly 28 mg/mL (≈ 34.8 mM). Moreover, the “solubility in an ethanol/water mixture (in words)” value (ethanol/water mixture) is given as “high”. For the setting “water”, the “solubility in water (in words)” value is reported as “low”. Moreover, under “water, water, water, read-out: solubility in water”, the solubility is less than 0.5 mg/mL.
For `C=C1C[C@@]23CC[C@H]4[C@@](C)(CCC[C@@]4(C)C(=O)O)[C@@H]2CC[C@]1(O[C@@H]1O[C@H](CO)[C@@H](O)[C@H](O[C@@H]2O[C@H](CO)[C@@H](O)[C@H](O)[C@H]2O)[C@H]1O[C@@H]1O[C@H](CO)[C@@H](O)[C@H](O)[C@H]1O)C3` [Form 2, rebaudioside B], the “solubility in ethanol (in words)” value is listed as “low” and the solubility in ethanol entry is given as “about 2.7 mg/mL”. Under “water”, the “solubility in water (in words)” value is on record as “low” and the solubility in water result is listed as “less than 0.5 mg/mL”.
As for `C=C1C[C@@]23CC[C@H]4[C@@](C)(CCC[C@@]4(C)C(=O)O)[C@@H]2CC[C@]1(O[C@@H]1O[C@H](CO)[C@@H](O)[C@H](O[C@@H]2O[C@H](CO)[C@@H](O)[C@H](O)[C@H]2O)[C@H]1O[C@@H]1O[C@H](CO)[C@@H](O)[C@H](O)[C@H]1O)C3` [Form 3, rebaudioside B], the “solubility in ethanol (in words)” value is reported as “moderate” and the solubility in ethanol result was “about 10 mg/mL”. Also, where the note is “water”, the “solubility in water (in words)” value is given as “low” and the solubility in water entry is recorded as “less than 0.5 mg/mL”.
